Experimental data taken from patent US10450326B2, “Thiazolopyrimidinone compounds and preparation methods and use thereof” (PEKING UNIVERSITY, priority 2015, dated 2019).
“Also recorded” adds a separate entry of the source.

Assays:
[1] = target: T1, α7 nAChR (Rattus norvegicus, UniProt Q05941); assay: Radioisotope ligand binding assay, displacement of [3H]-Methyllycaconitine bound to rat brain cell membrane
T1 construct: from tissue; host or cells: rat brain (hippocampus) cell membranes

[2] = target: T2, α7 nAChR (Homo sapiens, UniProt P36544); assay: α7 nAChR positive allosteric modulator activity assay, voltage clamp in Xenopus oocytes with 100 μM ACh; assay type: cell-based; details: for activity at 10 µM: at 10 μM compound, current induced by 100 μM ACh, Xenopus oocytes expressing α7 nAChR, read-out: Max Mod (%, at 10 μM)
T2 construct: expressed in transfected cells; host or cells: Xenopus oocytes (cRNA injection)
Description: The experimental process was as follows:
(1) Xenopus oocytes were injected with cRNA encoding α7 nAChR in order to express α7 nAChR on the cell membrane successfully;
(2) 100 μM ACh alone was added, and the α7 nAChR characteristic current caused by it was recorded as a control;
(5) The oocytes were incubated for 1 min with 10 μM compound, then 10 µM compound and 100 μM ACh were added simultaneously and the current induced by ACh was recorded at this time;
(6) The differences between the two currents in terms of peak intensity and duration were compared, with the ratio of peak intensity of the two currents representing the adjustment effect (Enhance Rate), in order to determine whether the compound had PAM activity, if the activity was good, then the subsequent test was carried out;
(7) Concentration gradient was set and the effects of compounds at different concentrations on the α7 nAChR characteristic current induced by 100 μM ACh were evaluated. Several determinations were carried out at the same concentration, and the results were presented in the form of “mean±standard deviation”;
(8) The EC50 (median maximum effect concentration) values and Max mod (the current amplitude caused by the maximal degree of adjustable endogenous agonist acetylcholine) values of the compounds and other activity data were obtained by Hill equation Inormalized=Emax/(1+(EC50/C)nH).
The amplitude of the peak current is only normalized by the amplitude produced by 100 μM ACh and different concentrations of LD486. […] It can be seen from FIG. 3 that the Hill equation is used to fit the dose-response curve and calculate the kinetic parameters.

[3] = target: T3, α3β4 receptors (Homo sapiens, UniProt P30926+P32297); assay: Two-electrode voltage clamp in Xenopus oocytes, α3β4 receptor; assay type: cell-based; details: 10 μM LD486, pre-stimulated 60 seconds, 10 μM ACh
T3 construct: expressed in transfected cells; host or cells: Xenopus oocytes
Description: (§1) FIGS. 4A and B show the response intensity curves of Xenopus oocytes stimulated by only […] Ach to α4β2 and α3β4 in the left panel, respectively.
(§2) FIGS. 4A and B show the response intensity curves of Xenopus oocytes stimulated by 10 μM ACh and […] LD486 to α4β2 and α3β4 in the right panel, respectively. Xenopus oocytes are pre-stimulated with 10 μM LD486 for 60 seconds.
(§3) Used as exogenous expression system, Xenopus oocytes are injected with different α subunits and β subunits at 1:1 ratio.

[4] = target: T4, hERG (human ether-a-go-go related gene) channel (Homo sapiens, UniProt Q12809); assay: Automatic patch clamp Qplate-16 assay, hERG channel expressed on CHO cell lines; assay type: cell-based; details: CHO cells
T4 construct: expressed in transfected cells; host or cells: CHO (Chinese hamster ovary) cell lines
Excerpt: In the absence of LD486 or cisapride or in the presence of LD486 or cisapride at different concentrations, drug-related hERG potassium channel inhibition can lead to ventricular delayed repolarization (long QT interval syndrome), which may lead to a current intensity of fatal arrhythmia such as torsades de pointes, and even sudden death.

[5] = target: T5, α4β2 receptors (Homo sapiens, UniProt P17787+P43681); assay: Two-electrode voltage clamp in Xenopus oocytes, α4β2 receptor; assay type: cell-based; details: 10 μM LD486, pre-stimulated 60 seconds, 10 μM ACh
T5 construct: expressed in transfected cells; host or cells: Xenopus oocytes
Description: as §1, §2, §3

[6] = potentiation of current induced by 100 μM ACh, Hill equation fit

T5 sequence (P43681 29-627 limits assumed): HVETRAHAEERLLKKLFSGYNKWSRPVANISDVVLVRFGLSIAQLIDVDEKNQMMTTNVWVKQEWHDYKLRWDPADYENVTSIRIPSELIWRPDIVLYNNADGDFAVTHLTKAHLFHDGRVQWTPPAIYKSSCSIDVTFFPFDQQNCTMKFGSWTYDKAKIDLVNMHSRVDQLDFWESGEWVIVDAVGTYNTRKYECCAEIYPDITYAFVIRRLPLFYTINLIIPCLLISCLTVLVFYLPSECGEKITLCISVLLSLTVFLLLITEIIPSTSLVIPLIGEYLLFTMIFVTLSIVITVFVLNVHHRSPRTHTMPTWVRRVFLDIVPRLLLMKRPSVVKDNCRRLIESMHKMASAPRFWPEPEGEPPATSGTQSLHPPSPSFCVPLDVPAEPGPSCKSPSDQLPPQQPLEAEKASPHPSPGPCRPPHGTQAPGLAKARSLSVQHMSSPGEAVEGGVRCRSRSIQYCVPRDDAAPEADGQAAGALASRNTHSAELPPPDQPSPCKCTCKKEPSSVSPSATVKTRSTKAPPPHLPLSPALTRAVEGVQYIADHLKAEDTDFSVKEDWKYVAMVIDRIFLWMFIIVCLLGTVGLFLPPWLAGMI
T5 sequence (P17787 26-502): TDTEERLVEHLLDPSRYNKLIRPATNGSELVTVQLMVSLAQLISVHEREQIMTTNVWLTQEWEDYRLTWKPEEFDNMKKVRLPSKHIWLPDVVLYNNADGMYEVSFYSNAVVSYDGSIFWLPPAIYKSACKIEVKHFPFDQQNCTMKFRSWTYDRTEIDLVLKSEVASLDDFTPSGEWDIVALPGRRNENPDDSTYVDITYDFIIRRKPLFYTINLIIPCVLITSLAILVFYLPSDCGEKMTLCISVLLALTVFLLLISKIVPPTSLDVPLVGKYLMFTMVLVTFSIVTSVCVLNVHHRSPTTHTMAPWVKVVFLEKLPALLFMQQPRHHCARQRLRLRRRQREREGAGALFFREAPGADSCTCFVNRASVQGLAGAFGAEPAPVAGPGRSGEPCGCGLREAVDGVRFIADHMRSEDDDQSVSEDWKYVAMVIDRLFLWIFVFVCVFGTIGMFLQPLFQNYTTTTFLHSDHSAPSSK
T3 sequence (P32297 32-505): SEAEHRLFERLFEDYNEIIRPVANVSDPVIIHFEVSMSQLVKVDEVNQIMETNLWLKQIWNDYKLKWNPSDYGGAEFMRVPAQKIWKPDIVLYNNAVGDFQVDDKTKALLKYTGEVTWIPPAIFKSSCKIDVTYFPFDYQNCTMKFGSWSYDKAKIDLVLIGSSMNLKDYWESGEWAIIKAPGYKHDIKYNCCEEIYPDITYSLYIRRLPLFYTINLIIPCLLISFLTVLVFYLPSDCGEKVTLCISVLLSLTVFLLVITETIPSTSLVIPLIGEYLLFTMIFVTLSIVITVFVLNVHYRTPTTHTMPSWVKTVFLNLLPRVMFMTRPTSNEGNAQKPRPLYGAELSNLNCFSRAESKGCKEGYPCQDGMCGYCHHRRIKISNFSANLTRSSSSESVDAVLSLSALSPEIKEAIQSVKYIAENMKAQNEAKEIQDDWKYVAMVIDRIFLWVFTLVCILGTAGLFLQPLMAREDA
T3 sequence (P30926 22-498): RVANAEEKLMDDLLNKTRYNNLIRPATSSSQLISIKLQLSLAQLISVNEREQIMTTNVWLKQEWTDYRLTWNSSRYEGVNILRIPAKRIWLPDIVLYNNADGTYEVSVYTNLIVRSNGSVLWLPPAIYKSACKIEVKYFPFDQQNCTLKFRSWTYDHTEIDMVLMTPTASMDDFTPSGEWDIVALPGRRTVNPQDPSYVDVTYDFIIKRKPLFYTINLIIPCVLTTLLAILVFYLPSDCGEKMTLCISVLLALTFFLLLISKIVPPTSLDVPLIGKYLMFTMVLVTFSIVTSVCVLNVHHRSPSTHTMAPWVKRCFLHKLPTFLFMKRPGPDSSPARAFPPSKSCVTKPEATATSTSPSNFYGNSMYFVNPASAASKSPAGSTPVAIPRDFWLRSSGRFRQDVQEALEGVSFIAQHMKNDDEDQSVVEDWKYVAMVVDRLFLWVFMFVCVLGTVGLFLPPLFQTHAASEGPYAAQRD
T4 sequence (Q12809 whole entry): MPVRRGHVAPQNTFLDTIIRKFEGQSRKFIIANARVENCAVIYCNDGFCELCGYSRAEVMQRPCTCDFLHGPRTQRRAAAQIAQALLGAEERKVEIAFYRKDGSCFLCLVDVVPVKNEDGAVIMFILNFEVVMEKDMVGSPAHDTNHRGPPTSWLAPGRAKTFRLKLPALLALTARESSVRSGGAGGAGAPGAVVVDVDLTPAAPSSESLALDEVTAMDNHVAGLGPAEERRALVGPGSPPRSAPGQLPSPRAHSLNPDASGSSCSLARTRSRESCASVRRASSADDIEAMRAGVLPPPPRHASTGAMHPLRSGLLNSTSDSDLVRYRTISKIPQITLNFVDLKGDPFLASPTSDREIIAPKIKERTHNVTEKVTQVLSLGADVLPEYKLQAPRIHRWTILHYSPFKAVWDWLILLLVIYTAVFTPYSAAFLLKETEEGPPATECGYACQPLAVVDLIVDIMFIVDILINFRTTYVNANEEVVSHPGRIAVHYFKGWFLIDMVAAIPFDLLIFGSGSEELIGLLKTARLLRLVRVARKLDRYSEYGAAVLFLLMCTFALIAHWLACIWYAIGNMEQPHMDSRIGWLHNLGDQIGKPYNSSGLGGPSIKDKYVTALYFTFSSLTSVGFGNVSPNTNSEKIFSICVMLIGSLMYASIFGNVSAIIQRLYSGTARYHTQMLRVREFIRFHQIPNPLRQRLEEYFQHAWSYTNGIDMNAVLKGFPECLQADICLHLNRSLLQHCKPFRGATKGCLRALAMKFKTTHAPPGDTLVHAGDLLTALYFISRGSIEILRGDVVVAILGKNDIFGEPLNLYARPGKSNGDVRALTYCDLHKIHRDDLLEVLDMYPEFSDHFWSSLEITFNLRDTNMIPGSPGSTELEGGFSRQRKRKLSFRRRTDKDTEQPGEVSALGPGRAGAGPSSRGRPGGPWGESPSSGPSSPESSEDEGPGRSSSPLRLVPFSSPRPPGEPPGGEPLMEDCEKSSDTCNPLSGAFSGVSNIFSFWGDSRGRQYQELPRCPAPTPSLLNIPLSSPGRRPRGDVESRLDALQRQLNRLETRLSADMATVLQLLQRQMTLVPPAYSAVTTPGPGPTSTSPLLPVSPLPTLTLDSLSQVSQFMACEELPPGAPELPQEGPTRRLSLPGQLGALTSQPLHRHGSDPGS
T2 sequence (P36544 23-502): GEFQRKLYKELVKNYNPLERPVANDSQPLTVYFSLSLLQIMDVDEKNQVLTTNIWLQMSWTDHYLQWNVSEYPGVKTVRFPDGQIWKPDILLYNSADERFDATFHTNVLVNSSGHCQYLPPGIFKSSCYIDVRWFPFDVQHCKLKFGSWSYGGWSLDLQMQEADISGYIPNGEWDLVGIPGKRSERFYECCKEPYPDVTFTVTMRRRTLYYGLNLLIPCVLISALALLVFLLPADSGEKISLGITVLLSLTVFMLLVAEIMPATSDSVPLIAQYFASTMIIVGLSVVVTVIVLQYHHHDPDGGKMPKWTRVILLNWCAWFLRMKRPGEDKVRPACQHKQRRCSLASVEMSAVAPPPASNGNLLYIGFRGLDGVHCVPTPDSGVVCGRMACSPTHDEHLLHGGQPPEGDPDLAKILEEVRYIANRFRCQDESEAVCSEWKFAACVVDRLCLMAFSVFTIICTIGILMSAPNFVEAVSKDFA
T1 sequence (Q05941 23-502): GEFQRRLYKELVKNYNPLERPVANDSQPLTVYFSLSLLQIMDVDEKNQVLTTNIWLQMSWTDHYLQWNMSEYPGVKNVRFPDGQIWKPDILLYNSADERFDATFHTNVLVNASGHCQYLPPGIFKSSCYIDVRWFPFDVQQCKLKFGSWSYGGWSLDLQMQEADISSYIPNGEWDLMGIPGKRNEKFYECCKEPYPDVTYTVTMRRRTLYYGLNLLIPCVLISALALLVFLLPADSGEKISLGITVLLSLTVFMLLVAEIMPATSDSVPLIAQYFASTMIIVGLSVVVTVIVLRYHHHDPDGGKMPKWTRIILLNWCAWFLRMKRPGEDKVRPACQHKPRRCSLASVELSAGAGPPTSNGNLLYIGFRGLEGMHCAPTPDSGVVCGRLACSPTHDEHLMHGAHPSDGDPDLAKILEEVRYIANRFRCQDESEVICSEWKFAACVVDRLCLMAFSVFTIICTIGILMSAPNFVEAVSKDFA

Cc1nc(Cl)cc(Nc2nc3ncn(-c4c(C)cccc4Cl)c(=O)c3s2)n1 [LD486, 2-((6-Chloro-2-methylpyrimidin-4-yl)amino)-6-(2-chloro-6-methylphenyl)thiazolo[4,5-d]pyrimidin-7(6H)-one]
effect on binding of [3H]-MLA to α7 nAChR ([1]; concentration increased to 10 μM, hippocampus of rats): does not affect; also recorded: not reduced
maximal degree of adjustable endogenous agonist ACh current amplitude ([2]; FIG. 3, Hill equation fit): about 3.2 times
Hill coefficient ([2]; FIG. 3, n=6): 1.4±0.2
Emax ([2]; FIG. 3, normalized to 100 μM ACh, repeated 6 times): 320%
EC50 ([2]; FIG. 3 concentration response curve, 100 μM ACh, n=6): 3.2 ± 0.3 µM
induction of α7 nAChR characteristic current by compound alone ([2]; LD486 0.1-10 μM alone, without ACh, FIG. 2): does not induce
activity at 10 µM [2]: 320%
current amplitude induced by 100 μM ACh compared with the control group ([2]; incubation 1 min, then same concentration of LD486 plus 100 μM ACh, FIG. 2): significantly increased
Ki ([2]; summary statement, read-out: Ki value as an α7nAChR PAM): ~3 µM
effect on current of α3β4 receptors [3]: did not increase; also recorded: no significant effect
inhibitory effect on the hERG channel [4]: no inhibitory effect; also recorded: slight inhibitory effect
effect on current of α4β2 receptors [5]: did not increase; also recorded: no significant effect

Cc1cccc(Cl)c1-n1cnc2nc(Sc3ccc(F)cc3)sc2c1=O [LYH150908, 6-(2-Chloro-6-methylphenyl)-2-((4-fluorophenyl)thio)thiazolo[4,5-d]pyrimidin-7(6H)-one]
activity at 10 µM [2]: 200%
EC50 [2, 6]: 10 µM

COc1ccc(Sc2nc3ncn(-c4c(C)cccc4Cl)c(=O)c3s2)cc1 [LYH150909, 6-(2-Chloro-6-methylphenyl)-2-((4-methoxyphenyl)thio)thiazolo[4,5-d]pyrimidin-7(6H)-one]
activity at 10 µM [2]: 110%

Cc1cccc(Cl)c1-n1cnc2nc(Sc3ccccc3)sc2c1=O [LYH151120, 6-(2-Chloro-6-methylphenyl)-2-(phenylthio)thiazolo[4,5-d]pyrimidin-7(6H)-one]
activity at 10 µM [2]: 380%
EC50 [2, 6]: 10 µM

Cc1cccc(Cl)c1-n1cnc2nc(Sc3cccc(F)c3)sc2c1=O [LYH151215, 6-(2-Chloro-6-methylphenyl)-2-((3-fluorophenyl)thio)thiazolo[4,5-d]pyrimidin-7(6H)-one]
EC50 [2, 6]: 10 µM

O=C(N[C@H]1CN2CCC1CC2)c1ccc(Cl)cc1 [PNU-282987, reference compound]
Ki ([1]; displacement of [3H]-MLA, rat brain cell membrane, FIG. 1): 0.0341 ± 0.0043 µM
